Earlier results, collected in paper PMC6044708 (ACS Omega, 2016).

Key:
Gram-positive bacteria = settings: comparison in words
E. coli = settings: Gram (−), ATCC strain; reference compound
B. subtilis = settings: Gram (+), ATCC strain; reference compound
S. aureus = settings: Gram (+), ATCC strain; reference compound
P. aeruginosa = settings: Gram (−), ATCC strain; reference compound

MIC E. coli (E. coli) [µg/mL] | MIC B. subtilis (B. subtilis) [µg/mL] | MIC S. aureus (S. aureus) [µg/mL] | MIC P. aeruginosa (P. aeruginosa) | Substance | activity compared with Arg10–teixobactin (2) (Gram-positive bacteria) | activity compared with the parent compound teixobactin (1) (Gram-positive bacteria)
– | – | – | – | Lys10–teixobactin | more active | –
64 | 0.5 | 2 | no activity | Arg10–teixobactin [Arg10–teixobactin (2)] | – | 1 order of magnitude less active
